For data set [1] the following is noted: oral administration to rats, versus a formulation in lipid alone; cited from earlier work.
A short description of data set [2]: Solubility of ingenol-3-angelate in co-solvents. The data set is classed as physicochemical. Particulars: organic solvent or mixture. The source says: In order to effect a highly efficient dissolution of the ingenol derivative it may be favourably to add a co-solvent to the composition. The co-solvent may be selected from the group consisting of lower alcohols, such as n-propanol, isopropanol, n-butanol, 2-butanol or benzyl alcohol, diols such as propylene glycol, a pyrrolidone such as N-methylpyrrolidone or N-hydroxyalkylpyrrolidone, an azone, ethyl acetate, dodecyl amine, diethylene glycol monoethyl ether, a fatty acid such as oleic or lauric acid, propylene carbonate, menthol or limolene. In particular, ingenol-3-angelate is soluble to freely soluble in the co-solvents benzyl alcohol (201-223 mg/ml), N-methylpyrrolidone (104-260 mg/ml), ethyl acetate (102-255 mg/ml), isopropanol (225-248 mg/ml) and diethylene glycol monoethyl ether (57-114 mg/ml). Some of these co-solvents, such as lower alcohols, may also, as required, act as penetration enhancers aiding the penetration of the ingenol derivative into the viable layers of the skin.

The values below come from patent publication US20150133543A1, “TOPICAL GEL COMPOSITION COMPRISING AN INGENOL DERIVATIVE AND A SOLVENT MIXTURE” (LEO Laboratories Limited, priority 2012, published 2015).

Values after ≈ are worked out from the molar mass of the structure shown. Read-outs that look alike come from different tables or passages of the source.

For orientation: solubility means the concentration that dissolves in the medium under given conditions.

As to `C=C1/C(=C\C=C2/CCC[C@]3(C)[C@@H]([C@H](C)/C=C/C=C/C(O)(CC)CC)CC[C@@H]23)C[C@@H](O)C[C@@H]1O` [seocalcitol], the bioavailability of seocalcitol entry in data set [1] is reported as “not improved”.
As for `C/C=C(/C)C(=O)O[C@H]1C(C)=C[C@]23C(=O)[C@@H](C=C(CO)[C@@H](O)[C@]12O)[C@H]1[C@@H](C[C@H]3C)C1(C)C` [ingenol-3-angelate, 2-methyl-2(Z)-butenoic acid (1aR,2S,5R,5aS,6S,8aS,9R,10aR)-5,5a-dihydroxy-4-(hydroxymethyl)-1,1,7,9-tetramethyl-11-oxo-1a,2,5,5a,6,9,10,10a-octahydro-1H-2,8a-methanocyclopenta[a]cyclopropa[e]cyclodecen-6-yl ester], the solubility in data set [2] (co-solvent N-methylpyrrolidone, read-out: solubility in N-methylpyrrolidone) was in the range of 104 to 260 mg/mL (≈ 242 to 604 mM); in data set [2] (co-solvent benzyl alcohol, read-out: solubility in benzyl alcohol) it was 201 to 223 mg/mL (≈ 467 to 518 mM); in data set [2] (co-solvent diethylene glycol monoethyl ether, read-out: solubility in diethylene glycol monoethyl ether), 57 to 114 mg/mL (≈ 132 to 265 mM); in data set [2] (co-solvent ethyl acetate, read-out: solubility in ethyl acetate) it was 102 to 255 mg/mL (≈ 237 to 592 mM); in data set [2] (co-solvent isopropanol, read-out: solubility in isopropanol) it was 225 to 248 mg/mL (≈ 523 to 576 mM).
